The values that follow come from paper PMC5597302 (Angewandte Chemie (International ed. in English), 2016).

pKd: −log10 of the molar value.

Data set [1] deals with B16 melanoma cells expressing human uPAR. The data set can be described thus: B16-uPAR mouse allograft model. Conditions: Dox 1 mpk.
A further data set has as its target uPAR (Homo sapiens, UniProt Q03405). Conditions: read-out: affinity for uPAR; reported value; ref 8a; cited from earlier work.

Sequence of uPAR (Q03405 23-335): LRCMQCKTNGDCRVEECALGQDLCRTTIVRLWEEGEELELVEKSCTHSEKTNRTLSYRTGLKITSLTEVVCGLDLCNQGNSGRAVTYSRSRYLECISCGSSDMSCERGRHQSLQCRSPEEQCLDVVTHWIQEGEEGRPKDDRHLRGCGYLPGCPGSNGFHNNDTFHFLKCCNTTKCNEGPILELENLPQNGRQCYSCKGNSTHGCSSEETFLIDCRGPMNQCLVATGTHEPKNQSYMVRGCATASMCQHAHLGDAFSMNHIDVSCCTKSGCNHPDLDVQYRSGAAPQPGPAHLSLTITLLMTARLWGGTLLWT

`COc1cccc2c1C(=O)c1c(O)c3c(c(O)c1C2=O)C[C@@](O)(C(=O)CO)C[C@@H]3O[C@H]1C[C@H](N)[C@H](O)[C@H](C)O1` [Dox, doxorubicin]: the “level of TGI relative to ARM-U2” value in data set [1] (daily IP, combination ARM-U2 20 mpk and Dox 1 mpk) was “comparable”. Also, in data set [1] (throughout the experiments, ARM-U2 20 or 100 mpk), the body weight loss entry was “significant levels of weight loss”.
For the compound `O=C(O)c1cccc(Nc2cc(N3CCCCCC3)c3noc4c3c2C(=O)c2ccccc2-4)c1` [IPR-803], on uPAR, the pKd is 6.70.
